According to ChEMBL document CHEMBL5154747, “Discovery of new carbonic anhydrase IX inhibitors as anticancer agents by toning the hydrophobic and hydrophilic rims of the active site to encounter the dual-tail approach” (Eur J Med Chem, 2022):

Assays:
Type in all cases: functional
SF-295 = assay: Anticancer activity against human SF-295 cells assessed as cell growth inhibition at 10 uM incubated for 48 hrs by SRB assay relative to control; settings: read-out: GI
TK-10 [1] = assay: Anticancer activity against human TK-10 cells assessed as cell growth inhibition incubated for 48 hrs by SRB assay
SNB-19 [2] = assay: Anticancer activity against human SNB-19 cells assessed as cell growth inhibition at 10 uM incubated for 48 hrs by SRB assay relative to control; settings: read-out: GI
IGROV-1 [3] = assay: Anticancer activity against human IGROV-1 cells assessed as cell growth inhibition at 10 uM incubated for 48 hrs by SRB assay relative to control; settings: read-out: GI
EKVX [4] = assay: Anticancer activity against human EKVX cells assessed as cell growth inhibition at 10 uM incubated for 48 hrs by SRB assay relative to control; settings: read-out: GI
KM12 = assay: Anticancer activity against human KM12 cells assessed as cell growth inhibition incubated for 48 hrs by SRB assay
OVCAR-8 [5] = assay: Anticancer activity against human OVCAR-8 cells assessed as cell growth inhibition incubated for 48 hrs by SRB assay
EKVX [6] = assay: Anticancer activity against human EKVX cells assessed as cell growth inhibition incubated for 48 hrs by SRB assay
TK-10 [7] = assay: Anticancer activity against human TK-10 cells assessed as cell growth inhibition at 10 uM incubated for 48 hrs by SRB assay relative to control; settings: read-out: GI
SN12C [8] = assay: Anticancer activity against human SN12C cells assessed as cell growth inhibition incubated for 48 hrs by SRB assay
NCI-H322M [9] = assay: Anticancer activity against human NCI-H322M cells assessed as cell growth inhibition incubated for 48 hrs by SRB assay
SK-MEL-28 [10] = assay: Anticancer activity against human SK-MEL-28 cells assessed as cell growth inhibition at 10 uM incubated for 48 hrs by SRB assay relative to control; settings: read-out: GI
SK-MEL-28 [11] = assay: Anticancer activity against human SK-MEL-28 cells assessed as cell growth inhibition incubated for 48 hrs by SRB assay
NCI-H23 = assay: Anticancer activity against human NCI-H23 cells assessed as cell growth inhibition incubated for 48 hrs by SRB assay
UO-31 = assay: Anticancer activity against human UO-31 cells assessed as cell growth inhibition at 10 uM incubated for 48 hrs by SRB assay relative to control; settings: read-out: GI
786-0 [12] = assay: Anticancer activity against human 786-0 cells assessed as cell growth inhibition incubated for 48 hrs by SRB assay
OVCAR-8 [13] = assay: Anticancer activity against human OVCAR-8 cells assessed as cell growth inhibition at 10 uM incubated for 48 hrs by SRB assay relative to control; settings: read-out: GI
SNB-19 [14] = assay: Anticancer activity against human SNB-19 cells assessed as cell growth inhibition incubated for 48 hrs by SRB assay
ACHN = assay: Anticancer activity against human ACHN cells assessed as cell growth inhibition incubated for 48 hrs by SRB assay
NCI-H226 = assay: Anticancer activity against human NCI-H226 cells assessed as cell growth inhibition incubated for 48 hrs by SRB assay
IGROV-1 [15] = assay: Anticancer activity against human IGROV-1 cells assessed as cell growth inhibition incubated for 48 hrs by SRB assay
MDA-MB-468 = assay: Anticancer activity against human MDA-MB-468 cells assessed as cell growth inhibition incubated for 48 hrs by SRB assay
SF-539 = assay: Anticancer activity against human SF-539 cells assessed as cell growth inhibition incubated for 48 hrs by SRB assay
HT-29 = assay: Anticancer activity against human HT-29 cells assessed as cell growth inhibition at 10 uM incubated for 48 hrs by SRB assay relative to control; settings: read-out: GI
RXF 393 = assay: Anticancer activity against human RXF 393 cells assessed as cell growth inhibition at 10 uM incubated for 48 hrs by SRB assay relative to control; settings: read-out: GI
LOX IMVI = assay: Anticancer activity against human LOX IMVI cells assessed as cell growth inhibition at 10 uM incubated for 48 hrs by SRB assay relative to control; settings: read-out: GI
COLO 205 = assay: Anticancer activity against human COLO 205 cells assessed as cell growth inhibition at 10 uM incubated for 48 hrs by SRB assay relative to control; settings: read-out: GI
BT-549 = assay: Anticancer activity against human BT-549 cells assessed as cell growth inhibition incubated for 48 hrs by SRB assay
DU-145 = assay: Anticancer activity against human DU-145 cells assessed as cell growth inhibition at 10 uM incubated for 48 hrs by SRB assay relative to control; settings: read-out: GI
SK-OV-3 [16] = assay: Anticancer activity against human SK-OV-3 cells assessed as cell growth inhibition incubated for 48 hrs by SRB assay
SK-MEL-5 = assay: Anticancer activity against human SK-MEL-5 cells assessed as cell growth inhibition incubated for 48 hrs by SRB assay
NCI-H322M [17] = assay: Anticancer activity against human NCI-H322M cells assessed as cell growth inhibition at 10 uM incubated for 48 hrs by SRB assay relative to control; settings: read-out: GI
NCI-H522 = assay: Anticancer activity against human NCI-H522 cells assessed as cell growth inhibition at 10 uM incubated for 48 hrs by SRB assay relative to control; settings: read-out: GI
UACC-257 = assay: Anticancer activity against human UACC-257 cells assessed as cell growth inhibition incubated for 48 hrs by SRB assay
SN12C [18] = assay: Anticancer activity against human SN12C cells assessed as cell growth inhibition at 10 uM incubated for 48 hrs by SRB assay relative to control; settings: read-out: GI
786-0 [19] = assay: Anticancer activity against human 786-0 cells assessed as cell growth inhibition at 10 uM incubated for 48 hrs by SRB assay relative to control; settings: read-out: GI
SK-OV-3 [20] = assay: Anticancer activity against human SK-OV-3 cells assessed as cell growth inhibition at 10 uM incubated for 48 hrs by SRB assay relative to control; settings: read-out: GI
Malme-3M = assay: Anticancer activity against human Malme-3M cells assessed as cell growth inhibition at 10 uM incubated for 48 hrs by SRB assay relative to control; settings: read-out: GI
MOLT-4 = assay: Anticancer activity against human MOLT-4 cells assessed as cell growth inhibition incubated for 48 hrs by SRB assay
Hs-578T = assay: Anticancer activity against human Hs-578T cells assessed as cell growth inhibition at 10 uM incubated for 48 hrs by SRB assay relative to control; settings: read-out: GI
[21] = read-out: LC50 (the source's name)

Cc1nn(-c2ccccc2)cc1/C=N/Nc1nc(Nc2ccccc2)nc(Nc2ccc(S(N)(=O)=O)cc2)n1
inhibition of growth at 10 µM (SF-295): 89%
GI50 (TK-10 [1]): 1480 nM
CC50 (TK-10 [1]; [21]): 8250 nM
inhibition of growth at 10 µM (SNB-19 [2]): 92%
inhibition of growth at 10 µM (IGROV-1 [3]): 86%
inhibition of growth at 10 µM (EKVX [4]): 81%
GI50 (KM12): 2840 nM
CC50 (KM12; [21]): > 100000 nM
GI50 (OVCAR-8 [5]): 2050 nM
LC50 (OVCAR-8 [5]): > 100000 nM
GI50 (EKVX [6]): 2000 nM
CC50 (EKVX [6]; [21]): 35100 nM
inhibition of growth at 10 µM (TK-10 [7]): 55%
GI50 (SN12C [8]): 2940 nM
LC50 (SN12C [8]): > 100000 nM
GI50 (NCI-H322M [9]): 2440 nM
CC50 (NCI-H322M [9]; [21]): > 100000 nM
inhibition of growth at 10 µM (SK-MEL-28 [10]): 113%
GI50 (SK-MEL-28 [11]): 1800 nM
CC50 (SK-MEL-28 [11]; [21]): 6640 nM
GI50 (NCI-H23): 1740 nM
CC50 (NCI-H23; [21]): 7500 nM
inhibition of growth at 10 µM (UO-31): 104%
GI50 (786-0 [12]): 2130 nM
inhibition of growth at 10 µM (OVCAR-8 [13]): 81%
GI50 (SNB-19 [14]): 3440 nM
CC50 (SNB-19 [14]; [21]): > 100000 nM
GI50 (ACHN): 1900 nM
CC50 (ACHN; [21]): 6720 nM
GI50 (NCI-H226): 1850 nM
CC50 (NCI-H226; [21]): > 100000 nM
GI50 (IGROV-1 [15]): 2590 nM
CC50 (IGROV-1 [15]; [21]): > 100000 nM
GI50 (MDA-MB-468): 1520 nM
CC50 (MDA-MB-468; [21]): 7030 nM
GI50 (SF-539): 1710 nM
CC50 (SF-539; [21]): 6250 nM
inhibition of growth at 10 µM (HT-29): 94%
inhibition of growth at 10 µM (RXF 393): 120%
inhibition of growth at 10 µM (LOX IMVI): 125%
inhibition of growth at 10 µM (COLO 205): 122%
GI50 (BT-549): 1840 nM
CC50 (BT-549; [21]): > 100000 nM
inhibition of growth at 10 µM (DU-145): 90%
GI50 (SK-OV-3 [16]): 2930 nM
LC50 (SK-OV-3 [16]): > 100000 nM
GI50 (SK-MEL-5): 1480 nM
LC50 (SK-MEL-5): 5300 nM
inhibition of growth at 10 µM (NCI-H322M [17]): 90%
inhibition of growth at 10 µM (NCI-H522): 100%
GI50 (UACC-257): 2500 nM
LC50 (UACC-257): > 100000 nM
inhibition of growth at 10 µM (SN12C [18]): 100%
inhibition of growth at 10 µM (786-0 [19]): 147%
inhibition of growth at 10 µM (SK-OV-3 [20]): 49%
inhibition of growth at 10 µM (Malme-3M): 125%
GI50 (MOLT-4): 2290 nM
CC50 (MOLT-4; [21]): > 100000 nM
inhibition of growth at 10 µM (Hs-578T): 86%
